The text below walks through data of ChEMBL document CHEMBL3616395, “Discovery of 4-arylamido 3-methyl isoxazole derivatives as novel FMS kinase inhibitors” (Eur J Med Chem, 2015).

pIC50: −log10 of the molar value. Calls of active or inactive are those of the source. No cut-off for these calls is given here.

In data set [1] the target is T1, Serine/threonine-protein kinase mTOR (Homo sapiens, UniProt P42345). The data set is described as follows: Inhibition of mTOR (unknown origin) after 40 mins by scintillation counting analysis.
In data set [2] the target is T2, Serine/threonine-protein kinase B-raf (Homo sapiens, UniProt P15056). The data set is described as follows: Inhibition of BRAF (unknown origin) after 40 mins by scintillation counting analysis.
The target in data set [3] is T3, Macrophage colony-stimulating factor 1 receptor (Homo sapiens, UniProt P07333). The data set is described as follows: Inhibition of FMS (unknown origin) after 40 mins by scintillation counting analysis.
For data set [4], the target named is Macrophage-stimulating protein receptor (Homo sapiens) (UniProt Q04912). The data set is described as follows: Inhibition of RON (unknown origin) at 10 uM after 40 mins by scintillation counting analysis.
Data set [5] addresses T4, RAF proto-oncogene serine/threonine-protein kinase (Homo sapiens, UniProt P04049). The data set is described as follows: Inhibition of C-Raf (unknown origin) after 40 mins by scintillation counting analysis.
Data set [6] deals with Fibroblast growth factor receptor 2 (Homo sapiens) (UniProt P21802). Kind of data set: Inhibition of FGFR2 (unknown origin) at 10 uM after 40 mins by scintillation counting analysis.
Data set [7] concerns the target Aurora kinase A (Homo sapiens) (UniProt O14965). The data set is described as follows: Inhibition of Aurora A (unknown origin) at 10 uM after 40 mins by scintillation counting analysis.
The target of data set [8] is Cyclin-dependent kinase 2/cyclin E (Homo sapiens) (UniProt P24864+P24941+O96020). Kind of data set: Inhibition of CDK2/cyclin E (unknown origin) at 10 uM after 40 mins by scintillation counting analysis. The class given is protein-complex assay.
In data set [9] the target is Insulin-like growth factor 1 receptor (Homo sapiens) (UniProt P08069). The data set is described as follows: Inhibition of IGF1R (unknown origin) at 10 uM after 40 mins by scintillation counting analysis.
Data set [10] concerns the target T3, Macrophage colony-stimulating factor 1 receptor. Kind of data set: Inhibition of FMS (unknown origin) at 10 uM after 40 mins by scintillation counting analysis.
The target of data set [11] is Receptor-type tyrosine-protein kinase FLT3 (Homo sapiens) (UniProt P36888). The data set is described as follows: Inhibition of FLT3 (unknown origin) at 10 uM after 40 mins by scintillation counting analysis.
For data set [12], the system named is U-937. Kind of data set: Antiproliferative activity against human U937 cells after 24 hrs by MTT assay. Particulars: U-937, 24 h. In kind it is functional.
Data set [13] addresses T2, Serine/threonine-protein kinase B-raf. Kind of data set: Inhibition of BRAF (unknown origin) at 10 uM after 40 mins by scintillation counting analysis.
Data set [14] concerns the target Proto-oncogene tyrosine-protein kinase ROS (Homo sapiens) (UniProt P08922). Kind of data set: Inhibition of ROS1 (unknown origin) at 10 uM after 40 mins by scintillation counting analysis.
Data set [15] addresses Mitogen-activated protein kinase 3 (Homo sapiens) (UniProt P27361). Kind of data set: Inhibition of ErK1 (unknown origin) at 10 uM after 40 mins by scintillation counting analysis.
The target in data set [16] is Hepatocyte growth factor receptor (Homo sapiens) (UniProt P08581). Kind of data set: Inhibition of c-MET (unknown origin) at 10 uM after 40 mins by scintillation counting analysis.
Data set [17] has as its target Focal adhesion kinase 1 (Homo sapiens) (UniProt Q05397). The data set is described as follows: Inhibition of FAK (unknown origin) at 10 uM after 40 mins by scintillation counting analysis.
Data set [18] addresses Serine/threonine-protein kinase B-raf (Homo sapiens, UniProt P15056, V600E). Kind of data set: Inhibition of BRAF V599E mutant (unknown origin) after 40 mins by scintillation counting analysis.
The target of data set [19] is Tyrosine-protein kinase JAK3 (Homo sapiens) (UniProt P52333). Kind of data set: Inhibition of Jak3 (unknown origin) at 10 uM after 40 mins by scintillation counting analysis.
Data set [20] has as its target T4, RAF proto-oncogene serine/threonine-protein kinase. Kind of data set: Inhibition of RAF1 (unknown origin) at 10 uM after 40 mins by scintillation counting analysis.
Data set [21] deals with Serine/threonine-protein kinase PLK1 (Homo sapiens) (UniProt P53350). The data set is described as follows: Inhibition of PLK1 (unknown origin) at 10 uM after 40 mins by scintillation counting analysis.
For data set [22], the target named is Tyrosine-protein kinase SYK (Homo sapiens) (UniProt P43405). The data set is described as follows: Inhibition of SYK (unknown origin) at 10 uM after 40 mins by scintillation counting analysis.
Data set [23] concerns the target Mast/stem cell growth factor receptor Kit (Homo sapiens) (UniProt P10721). Kind of data set: Inhibition of c-Kit (unknown origin) at 10 uM after 40 mins by scintillation counting analysis.
The target of data set [24] is Vascular endothelial growth factor receptor 2 (Homo sapiens) (UniProt P35968). Kind of data set: Inhibition of VEGFR2 (unknown origin) at 10 uM after 40 mins by scintillation counting analysis.
Data set [25] concerns the target Fibroblast growth factor receptor 3 (Homo sapiens) (UniProt P22607). Kind of data set: Inhibition of FGFR3 (unknown origin) at 10 uM after 40 mins by scintillation counting analysis.
Data set [26] concerns the target cAMP-dependent protein kinase (PKA) (Homo sapiens) (UniProt P22694+P17612+P22612). The data set is described as follows: Inhibition of PKA (unknown origin) at 10 uM after 40 mins by scintillation counting analysis. The class given is protein assay.
Data set [27] has as its target Dual specificity mitogen-activated protein kinase kinase 1 (Homo sapiens) (UniProt Q02750). The data set is described as follows: Inhibition of MEK1 (unknown origin) at 10 uM after 40 mins by scintillation counting analysis.
In data set [28] the target is T5, Tyrosine-protein kinase Lyn (Homo sapiens, UniProt P07948). The data set is described as follows: Inhibition of Lyn (unknown origin) after 40 mins by scintillation counting analysis.
The target in data set [29] is Mitogen-activated protein kinase 10 (Homo sapiens) (UniProt P53779). Kind of data set: Inhibition of JNK3 (unknown origin) at 10 uM after 40 mins by scintillation counting analysis.
Data set [30] is described as follows: Cytotoxicity against human HS27 cells after 24 hrs by MTT assay. In kind it is cell-based. On the technique in general: Tetrazolium dyes change colour on reduction, which living cells bring about.
The subject of data set [31] is A375P. Kind of data set: Antiproliferative activity against human A375P cells after 24 hrs by MTT assay. In kind it is functional, cell-based.
The target of data set [32] is Glycogen synthase kinase-3 beta (Homo sapiens) (UniProt P49841). The data set is described as follows: Inhibition of GSK3b (unknown origin) at 10 uM after 40 mins by scintillation counting analysis.
Data set [33] has as its system Serine/threonine-protein kinase B-raf (Homo sapiens), P15056 [V600E]. Kind of data set: Inhibition of BRAF V599E mutant (unknown origin) at 10 uM after 40 mins by scintillation counting analysis.
Data set [34] concerns the target T1, Serine/threonine-protein kinase mTOR. Kind of data set: Inhibition of mTOR (unknown origin) at 10 uM after 40 mins by scintillation counting analysis.
Data set [35] concerns the target Epidermal growth factor receptor (Homo sapiens) (UniProt P00533). Kind of data set: Inhibition of EGFR (unknown origin) at 10 uM after 40 mins by scintillation counting analysis.
In data set [36] the target is ALK tyrosine kinase receptor (Homo sapiens) (UniProt Q9UM73). The data set is described as follows: Inhibition of ALK (unknown origin) at 10 uM after 40 mins by scintillation counting analysis.
In data set [37] the target is RAC-alpha serine/threonine-protein kinase (Homo sapiens) (UniProt P31749). The data set is described as follows: Inhibition of AKT1 (unknown origin) at 10 uM after 40 mins by scintillation counting analysis.
The target in data set [38] is Cyclin-dependent kinase 1/cyclin B (Homo sapiens) (UniProt P06493+P14635+Q8WWL7+O95067). The data set is described as follows: Inhibition of CDK1/cyclin B (unknown origin) at 10 uM after 40 mins by scintillation counting analysis. In kind it is protein-complex assay.
The target in data set [39] is T5, Tyrosine-protein kinase Lyn. Kind of data set: Inhibition of Lyn (unknown origin) at 10 uM after 40 mins by scintillation counting analysis.

T4 sequence (P04049 whole entry): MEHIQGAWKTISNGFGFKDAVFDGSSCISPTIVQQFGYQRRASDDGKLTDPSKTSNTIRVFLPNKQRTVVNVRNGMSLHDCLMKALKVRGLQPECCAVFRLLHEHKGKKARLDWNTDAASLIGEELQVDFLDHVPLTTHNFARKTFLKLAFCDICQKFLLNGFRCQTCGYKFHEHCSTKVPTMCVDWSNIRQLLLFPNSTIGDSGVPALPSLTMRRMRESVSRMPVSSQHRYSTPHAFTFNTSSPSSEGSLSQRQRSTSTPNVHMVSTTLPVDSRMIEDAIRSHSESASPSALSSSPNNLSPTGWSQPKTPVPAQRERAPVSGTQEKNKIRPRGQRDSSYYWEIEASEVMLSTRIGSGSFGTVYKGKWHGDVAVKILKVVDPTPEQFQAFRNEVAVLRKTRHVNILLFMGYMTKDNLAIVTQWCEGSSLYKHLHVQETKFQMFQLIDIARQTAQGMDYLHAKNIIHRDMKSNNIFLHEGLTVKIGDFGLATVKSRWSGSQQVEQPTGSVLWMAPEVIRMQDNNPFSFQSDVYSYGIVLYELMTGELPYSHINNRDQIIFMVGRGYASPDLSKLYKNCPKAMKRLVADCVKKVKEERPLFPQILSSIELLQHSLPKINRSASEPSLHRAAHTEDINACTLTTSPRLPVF
T3 sequence (P07333 whole entry): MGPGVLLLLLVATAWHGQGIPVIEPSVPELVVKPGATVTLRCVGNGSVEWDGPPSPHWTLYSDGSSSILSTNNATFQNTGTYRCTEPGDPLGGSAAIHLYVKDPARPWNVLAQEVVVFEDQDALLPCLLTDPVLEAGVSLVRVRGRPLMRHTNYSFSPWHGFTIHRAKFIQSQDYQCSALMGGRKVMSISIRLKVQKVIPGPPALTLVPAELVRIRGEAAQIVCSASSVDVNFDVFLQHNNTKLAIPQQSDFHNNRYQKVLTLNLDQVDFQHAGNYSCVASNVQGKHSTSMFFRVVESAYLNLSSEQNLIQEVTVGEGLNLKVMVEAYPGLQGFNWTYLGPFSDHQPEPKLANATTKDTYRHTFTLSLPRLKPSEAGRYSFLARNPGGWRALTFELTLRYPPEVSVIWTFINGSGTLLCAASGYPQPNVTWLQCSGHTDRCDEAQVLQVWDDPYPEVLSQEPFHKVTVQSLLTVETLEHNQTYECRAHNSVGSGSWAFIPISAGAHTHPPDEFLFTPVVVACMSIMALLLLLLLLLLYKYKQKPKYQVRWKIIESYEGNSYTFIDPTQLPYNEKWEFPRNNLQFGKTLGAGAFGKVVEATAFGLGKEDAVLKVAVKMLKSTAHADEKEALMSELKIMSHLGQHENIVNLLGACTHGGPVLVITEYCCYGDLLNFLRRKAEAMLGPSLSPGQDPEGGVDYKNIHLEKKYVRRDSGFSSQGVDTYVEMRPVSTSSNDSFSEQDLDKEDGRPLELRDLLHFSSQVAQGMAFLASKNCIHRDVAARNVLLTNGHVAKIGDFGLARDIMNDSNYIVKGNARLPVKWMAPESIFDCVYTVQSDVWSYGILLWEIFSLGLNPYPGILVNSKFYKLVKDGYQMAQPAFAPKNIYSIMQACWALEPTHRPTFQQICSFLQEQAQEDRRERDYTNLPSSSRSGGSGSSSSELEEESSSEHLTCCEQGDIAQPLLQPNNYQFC
T2 sequence (P15056 whole entry): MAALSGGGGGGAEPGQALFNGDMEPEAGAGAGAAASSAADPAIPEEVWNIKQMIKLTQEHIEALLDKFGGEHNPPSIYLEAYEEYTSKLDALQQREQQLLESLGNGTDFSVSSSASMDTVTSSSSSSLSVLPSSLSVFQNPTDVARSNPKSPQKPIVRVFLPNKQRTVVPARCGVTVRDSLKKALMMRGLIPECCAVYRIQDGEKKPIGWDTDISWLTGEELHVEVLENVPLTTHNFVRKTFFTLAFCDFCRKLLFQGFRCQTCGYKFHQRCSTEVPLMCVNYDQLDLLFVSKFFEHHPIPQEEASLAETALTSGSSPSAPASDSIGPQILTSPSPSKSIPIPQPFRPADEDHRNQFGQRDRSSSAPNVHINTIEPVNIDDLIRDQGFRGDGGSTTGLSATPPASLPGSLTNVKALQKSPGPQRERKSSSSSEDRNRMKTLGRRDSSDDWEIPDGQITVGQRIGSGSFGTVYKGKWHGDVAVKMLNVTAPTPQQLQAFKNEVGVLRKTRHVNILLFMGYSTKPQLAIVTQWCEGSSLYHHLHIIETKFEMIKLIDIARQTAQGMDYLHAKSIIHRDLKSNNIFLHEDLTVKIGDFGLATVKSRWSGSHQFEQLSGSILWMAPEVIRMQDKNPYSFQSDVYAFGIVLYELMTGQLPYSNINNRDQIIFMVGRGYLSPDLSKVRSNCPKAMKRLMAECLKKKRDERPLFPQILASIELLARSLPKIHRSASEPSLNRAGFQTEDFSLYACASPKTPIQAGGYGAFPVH
Insulin-like growth factor 1 receptor (Homo sapiens), sequence (P08069 31-736 limits assumed): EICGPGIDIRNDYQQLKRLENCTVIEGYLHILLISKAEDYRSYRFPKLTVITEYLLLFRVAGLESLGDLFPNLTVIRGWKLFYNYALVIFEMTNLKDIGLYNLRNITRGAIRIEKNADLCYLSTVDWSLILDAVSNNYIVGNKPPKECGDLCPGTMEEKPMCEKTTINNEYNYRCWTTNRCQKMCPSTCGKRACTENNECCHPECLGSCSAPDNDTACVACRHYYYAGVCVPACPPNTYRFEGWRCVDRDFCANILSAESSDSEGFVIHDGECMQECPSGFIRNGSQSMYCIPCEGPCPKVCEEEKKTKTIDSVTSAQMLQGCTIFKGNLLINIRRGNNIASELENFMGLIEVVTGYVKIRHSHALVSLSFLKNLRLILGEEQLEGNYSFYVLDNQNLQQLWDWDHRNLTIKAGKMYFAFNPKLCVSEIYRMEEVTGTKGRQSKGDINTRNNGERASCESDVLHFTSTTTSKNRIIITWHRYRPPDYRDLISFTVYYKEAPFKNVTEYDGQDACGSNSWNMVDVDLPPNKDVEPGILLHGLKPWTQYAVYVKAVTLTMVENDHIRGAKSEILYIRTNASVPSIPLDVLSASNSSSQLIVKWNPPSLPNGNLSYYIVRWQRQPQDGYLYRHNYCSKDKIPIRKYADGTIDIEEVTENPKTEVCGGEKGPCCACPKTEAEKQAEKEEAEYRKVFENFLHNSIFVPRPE
Insulin-like growth factor 1 receptor (Homo sapiens), sequence (P08069 741-1367 limits assumed): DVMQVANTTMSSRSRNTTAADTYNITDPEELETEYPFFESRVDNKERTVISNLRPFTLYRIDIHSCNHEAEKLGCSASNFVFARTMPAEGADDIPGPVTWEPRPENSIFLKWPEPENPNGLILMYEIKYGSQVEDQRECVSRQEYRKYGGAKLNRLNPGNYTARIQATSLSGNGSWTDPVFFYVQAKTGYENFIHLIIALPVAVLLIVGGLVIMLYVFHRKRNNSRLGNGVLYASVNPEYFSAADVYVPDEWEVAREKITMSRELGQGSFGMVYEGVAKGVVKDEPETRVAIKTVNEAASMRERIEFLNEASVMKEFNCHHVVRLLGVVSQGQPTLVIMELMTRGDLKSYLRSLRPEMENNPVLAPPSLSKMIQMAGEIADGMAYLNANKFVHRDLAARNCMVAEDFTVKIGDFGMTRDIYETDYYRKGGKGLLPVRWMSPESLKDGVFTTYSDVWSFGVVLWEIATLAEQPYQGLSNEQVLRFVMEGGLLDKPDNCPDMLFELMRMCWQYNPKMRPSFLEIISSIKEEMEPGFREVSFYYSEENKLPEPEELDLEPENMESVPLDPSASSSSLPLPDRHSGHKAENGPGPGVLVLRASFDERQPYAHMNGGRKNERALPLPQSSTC
Fibroblast growth factor receptor 3 (Homo sapiens), sequence (P22607 23-806 limits assumed): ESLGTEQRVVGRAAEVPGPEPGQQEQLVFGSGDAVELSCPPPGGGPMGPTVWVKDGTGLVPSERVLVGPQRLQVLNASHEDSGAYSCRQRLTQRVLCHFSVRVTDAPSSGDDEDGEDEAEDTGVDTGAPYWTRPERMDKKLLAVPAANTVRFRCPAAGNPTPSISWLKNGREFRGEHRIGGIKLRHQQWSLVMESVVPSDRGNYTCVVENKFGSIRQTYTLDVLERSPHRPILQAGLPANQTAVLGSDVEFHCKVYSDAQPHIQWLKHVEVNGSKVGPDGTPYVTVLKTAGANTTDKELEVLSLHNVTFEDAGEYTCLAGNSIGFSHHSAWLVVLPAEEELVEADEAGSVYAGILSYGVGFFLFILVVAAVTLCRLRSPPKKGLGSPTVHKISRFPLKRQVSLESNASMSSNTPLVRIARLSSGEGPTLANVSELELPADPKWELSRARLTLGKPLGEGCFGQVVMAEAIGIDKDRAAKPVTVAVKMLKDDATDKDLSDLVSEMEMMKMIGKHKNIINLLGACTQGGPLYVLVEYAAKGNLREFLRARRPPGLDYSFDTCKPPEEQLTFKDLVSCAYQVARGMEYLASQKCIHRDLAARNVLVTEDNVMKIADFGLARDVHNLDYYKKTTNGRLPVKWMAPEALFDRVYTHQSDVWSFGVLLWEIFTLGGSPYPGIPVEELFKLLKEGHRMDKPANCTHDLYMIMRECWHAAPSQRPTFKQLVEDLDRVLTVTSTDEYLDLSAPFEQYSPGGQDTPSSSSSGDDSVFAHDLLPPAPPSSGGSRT
Serine/threonine-protein kinase B-raf (Homo sapiens), P15056 [V600E], sequence (P15056 whole entry V600E): as the sequence (P15056 whole entry) above, with V600E counted along it
Glycogen synthase kinase-3 beta (Homo sapiens), sequence (P49841 whole entry, looked up): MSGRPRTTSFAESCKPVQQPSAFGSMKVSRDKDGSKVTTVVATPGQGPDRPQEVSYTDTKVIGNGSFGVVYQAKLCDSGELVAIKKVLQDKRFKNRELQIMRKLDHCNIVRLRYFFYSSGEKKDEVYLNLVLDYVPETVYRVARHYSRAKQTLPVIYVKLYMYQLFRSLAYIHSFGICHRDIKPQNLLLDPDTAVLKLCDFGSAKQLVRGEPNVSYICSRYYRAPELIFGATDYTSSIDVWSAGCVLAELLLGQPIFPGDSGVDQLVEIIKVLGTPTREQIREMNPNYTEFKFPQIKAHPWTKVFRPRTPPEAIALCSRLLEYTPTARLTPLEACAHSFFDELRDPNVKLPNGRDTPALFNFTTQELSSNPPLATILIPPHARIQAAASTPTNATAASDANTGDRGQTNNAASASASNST

In general, pIC50 refers to −log10 of the IC50, conventionally taken in molar units. Read a low pIC50 as a high IC50. On to `O=c1cc(N2CCOCC2)oc2c(-c3ccccc3)cccc12` [LY-294002], for which, in data set [1], the pIC50 was 5.00.

For orientation: inhibition means the change of the read-out against control, counted positive when it falls. For orientation: GI50 means the concentration giving 50% growth inhibition. Turning to `Cc1ccc(NC(=O)c2cc(N3CCN(C)CC3)cc(C(F)(F)F)c2)cc1NC(=O)c1cnoc1C`, the pIC50 was 5.22 in [2]; 8.00 in data set [3]; 7.35 in data set [5]; 6.18 in data set [18]; 7.18 in data set [28]. In addition, the inhibition in data set [4] stood at 0%; in [6], 3.6%; in data set [7] it was 0%; in [8] it was 1.85%; in [9] it was 0%; in data set [10] it was 98.7%. Besides, the inhibition worked out at 2.12% in [11]; 61.2% in data set [13]; 0% in [14]; 7.54% in data set [15]; 0% in data set [16]; 0% in data set [17]. Moreover, the inhibition in data set [19] came to 0%; in [20], 95.9%; in data set [21] it was 0%; in data set [22], 3.81%; in data set [23], 7.5%; in data set [24], 8.27%. Further, the inhibition in data set [25] worked out at 0%; in data set [26], 0%; in [27], 0%; in [29] it was 15.3%; in [32], 0%; in data set [33] it was 87.9%. The inhibition stood at 1.14% in [34]; 4.68% in data set [35]; 0% in data set [36]; 5.73% in data set [37]; 0% in [38]; 97.8% in data set [39]. In [12], this compound gave a GI50 of 0.016 µM. This compound also registered a GI50 at 24 h in data set [30] greater than 30 µM. In data set [31], the outcome was inactive.

The compound `Cc1cc(NC(=O)Nc2ccc(Cl)c(C(F)(F)F)c2)ccc1NC(=O)c1cnoc1C` yielded a GI50 in data set [12] of 16.5 µM. Moreover, the GI50 at 24 h in data set [30] is greater than 30 µM. In addition, the result in data set [31] was inactive.

Compound `Cc1ccc(NC(=O)Cc2ccccc2F)cc1NC(=O)c1cnoc1C` yielded a GI50 in data set [12] greater than 30 µM. In data set [30], this compound showed a concentration for 50% growth inhibition (GI50) at 24 h greater than 30 µM. Moreover, in data set [31], the result was inactive.

The compound `Cc1cc(C)cc(C(=O)Nc2ccc(C)c(NC(=O)c3cnoc3C)c2)c1` came in with a GI50 in data set [12] of 3.1 µM. In data set [30], this compound displayed a GI50 at 24 h greater than 30 µM. The result in data set [31] was inactive.

Consider `Cc1cc(NC(=O)Nc2ccccc2F)ccc1NC(=O)c1cnoc1C`, for which the GI50 in data set [12] is greater than 30 µM. The compound further returned a GI50 at 24 h in data set [30] greater than 30 µM. In addition, the result in data set [31] was inactive.

In [12], `Cc1ccc(NC(=O)c2cc(-n3ccnc3C)cc(C(F)(F)F)c2)cc1NC(=O)c1cnoc1C` returned a GI50 of 0.019 µM. The compound also gave a GI50 at 24 h in data set [30] greater than 30 µM. Further, the outcome in data set [31] was inactive.

Regarding `Cc1ccc(NC(=O)c2ccc(-c3ccccc3)cc2)cc1NC(=O)c1cnoc1C`, in data set [12], the GI50 is greater than 30 µM. Further, the GI50 at 24 h in data set [30] is greater than 30 µM. In addition, in [31], the result was inactive.

In turn, `Cc1ccc(NC(=O)Cc2c[nH]c3ccccc23)cc1NC(=O)c1cnoc1C` displayed a GI50 in data set [12] greater than 30 µM. Also, the GI50 at 24 h in data set [30] is greater than 30 µM. In addition, the outcome in data set [31] was inactive.

`Cc1ccc(NC(=O)Nc2cc(Cl)cc(Cl)c2)cc1NC(=O)c1cnoc1C`: the GI50 in [12] is greater than 30 µM. This compound displayed a concentration for 50% growth inhibition (GI50) at 24 h in [30] greater than 30 µM. Besides, the outcome in [31] was inactive.

Turning to `Cc1cc(NC(=O)Nc2ccc(Cl)cc2)ccc1NC(=O)c1cnoc1C`, in [12], the GI50 is greater than 30 µM. The compound also returned a GI50 at 24 h in data set [30] greater than 30 µM. The outcome in [31] was inactive.

For the compound `Cc1ccc(NC(=O)C(c2ccc(Cl)cc2)c2ccc(Cl)cc2)cc1NC(=O)c1cnoc1C`, in data set [12], the GI50 was greater than 30 µM. The GI50 at 24 h in data set [30] is greater than 30 µM. Moreover, in [31], the outcome was inactive.

As to `Cc1cc(NC(=O)Nc2cc(Cl)cc(Cl)c2)ccc1NC(=O)c1cnoc1C`, in data set [12], the GI50 was greater than 30 µM. Besides, the GI50 at 24 h in data set [30] is greater than 30 µM. Further, the outcome in data set [31] was inactive.

As for `CCCS(=O)(=O)Nc1ccc(C)c(NC(=O)c2cnoc2C)c1`, the GI50 in data set [12] is greater than 30 µM. The compound further returned a 50% growth inhibitory concentration (GI50) at 24 h in data set [30] greater than 30 µM. In addition, in data set [31], the result was inactive.
